Values joined by “and” are separate entries in the source; they are usually repeats but may differ in a detail not shown here. Equal values may be shown once. Read-outs that look alike come from different tables or passages of the source. Where a SMILES comes first, the peptide text is derived from it.
How the values were obtained:
[1] = Half-life in the blood circulation
[2] = tested on: water-deprived or euhydrated mice; experiment: Plasma AVP after i.c.v. injection (RIA); type: in vivo, mouse; details: for maximal decrease in AVP release: water-deprived mice
Procedure: Animals were killed 1 min after the injection, and trunk blood (0.5-1 ml) was collected in chilled tubes containing 50 μl of 0.3 M EDTA pH 7.4. […] RIA kit (Peninsula Laboratories International Inc, San Carlo, USA).

rat apelin receptor-EGFP [3] = target: T1, rat apelin receptor-EGFP (Rattus norvegicus, UniProt Q9JHG3); experiment: ERK1/2 phosphorylation (Alphascreen); type: cell-based; details: Table 7; read-out: ERK1/2 phosphorylation EC50
T1 construct: expressed in transfected cells
T1 sequence (Q9JHG3 1-377): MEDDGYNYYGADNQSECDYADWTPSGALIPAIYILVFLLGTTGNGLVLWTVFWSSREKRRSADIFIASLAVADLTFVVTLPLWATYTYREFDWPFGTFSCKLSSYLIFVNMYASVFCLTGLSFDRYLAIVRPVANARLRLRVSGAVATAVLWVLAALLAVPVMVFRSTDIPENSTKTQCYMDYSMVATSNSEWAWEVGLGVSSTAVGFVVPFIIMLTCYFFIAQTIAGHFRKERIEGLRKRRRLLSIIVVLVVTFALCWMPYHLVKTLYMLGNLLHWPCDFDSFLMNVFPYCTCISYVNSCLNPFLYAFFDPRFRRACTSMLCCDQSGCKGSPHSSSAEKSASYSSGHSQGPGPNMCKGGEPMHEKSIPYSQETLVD
Excerpt: ERK1/2 phosphorylation was then monitored by Alphascreen technology.

[4] = tested on: rat aortic rings precontracted by noradrenaline (NA); experiment: Isometric tension of aortic rings precontracted by noradrenaline; details: for maximal relaxant effect / potency (pD2) of relaxation: precontraction 3×10^−6 M NA
Procedure: The experiments were performed in rat aortic rings as previously described (39). […] The aortas were cleaned of excess connective tissue and fat and cut into rings of approximately 3-4 mm in length. Special care was taken to avoid damaging the luminal surface of the endothelium. […] One end of the aortic ring was connected to a tissue holder and the other to an isometric force transducer (EMKA Technologies, Paris, France). […] During equilibration period, the rings were washed every 30 min. Then, a first relaxation to acetylcholine (Ach, 10^−4 mol/L) was implemented to check the integrity or the absence of the endothelium in rings precontracted with NA (3×10^−8 mol/L). After rinsing with PSS to baseline tension, rings were equilibrated for 90 min. […] Each concentration of the drug was added at the maximal effect of the precedent concentration. The concentration-response curves were continuously recorded on a PC by means of IOX v 2.4 (EMKA Technologies, Paris) for further analysis (Datanalyst v2.1, EMKA Technologies, Paris).

rat apelin receptor-EGFP [5] = target: T1, rat apelin receptor-EGFP; experiment: Inhibition of forskolin-induced cAMP production (HTRF); type: cell-based
Procedure: cAMP was quantified using the cAMP dynamic 2 assay kit (Cisbio Bioassays, Codolet, France) based on homogeneous time-resolved fluorescence (HTRF) technology. The stimulation was done in the stimulation buffer (HBSS, 5 mM Hepes, 0.1% BSA stabilizer, 1 mM IBMX, pH 7.4). Briefly, 2,000/well CHO cells stably expressing the rat apelin receptor-EGFP were added into 384-well plate and stimulated with 10^−6 M forskolin (FSK) and increasing concentrations (10^−14 to 10^−4 M) of apelins or its analogs for 30 min at room temperature. Cells were then lyzed, and cAMP levels were determined following manufacturer instructions.

[6] = tested on: rat glomerular arterioles precontracted by Angiotensin II (AngII); experiment: Diameter of glomerular arterioles precontracted by angiotensin II; details: for vasorelaxant effect in the presence of L-NAME: NO synthase inhibitor
Procedure: The left kidney of male rats was prepared for microdissection of arterioles as previously described (44). Glomerular arterioles were isolated under stereomicroscopic observation. The afferent and muscular efferent arterioles were isolated with the glomerulus and identify according their morphology and localization in the inner renal cortex as previously described by Helou et al. […] For these experiments afferent and muscular efferent arterioles were microdissected attached to the gomeruli. […] Arteriolar diameters were measured with Adobe Photoshop CS. Diameters were measured on a distance equal to about 100 μm upstream of the glomerulus and triplicate were performed for each arteriole. Calibration was made using a stage micrometer. The average diameter for each experimental condition was used for statistical analysis.

[7] = tested on: isolated perfused rat heart; experiment: Isolated perfused rat heart, cardiac contractility; details: for effect on cardiac contractility (developed pressure): K17F 0.01 to 300 nM, P92 200 and 400 nM
Procedure: Animals were anesthetized with pentobarbital sodium (50 mg/kg intraperitoneally). Heparin (200 IU/kg) was administrated into the femoral vein. Hearts were excised quickly and arrested in ice-cold Krebs-Henseleit solution containing (mM): […] […] Temperature was continuously monitored by a thermoprobe inserted into the right atrium. Hearts beat spontaneously under the sinus rhythm. […] The maximal rate of rise of left ventricular pressure (dP/dtmax) and heart rate were derived from left ventricular pressure. After 20-minutes equilibration period, the hearts were treated by drugs added to the perfusate with an infusion pump (Harvard Apparatus Pump 11) at rate of 100 μL/min for 30 minutes.

[8] = tested on: anaesthesized normotensive Wistar rats; experiment: Arterial blood pressure after i.v. injection; type: in vivo, rat; details: for AUC of BP response: 100 nmol i.v., 15 minutes following injection; for Maximal decrease in BP (mmHg) / Time For maximal BP decrease / Time to return to a plateau value / plateau value reached (in brackets): Table 5; for ED50 decrease of MABP: i.v. 5-100 nmol/rat
Procedure: The resulting solution was administered to the rats via a catheter inserted into the right femoral vein, and was immediately followed by 0.2 ml Krebs buffer alone to flush the venous catheter. An additional catheter was inserted into the right femoral artery, as previously described (47), for the monitoring of mean arterial blood pressure (MBP) as previously described (48). The arterial catheter was connected to a COBE CDX III pressure transducer (Phymep, Paris, France) linked to the Maclab system (Phymep, Paris, France). HR measurement was triggered by the blood pressure signal. BP was continuously recorded throughout the experiment. […] Mean AUC for each group were then calculated. Unpaired Student's t test was used to determine whether BP observed in response to substances administered […].) has statistically significant difference.

[9] = Stability in mouse plasma at 37° C.; details: mouse, plasma
Procedure: For each compound, the stock solution (100 μM in water) was diluted in plasma to a final incubation concentration of 5 μM. The incubation at 37° C. was stopped respectively at to and 4 h by adding one volume of ice cold acetonitrile containing 0.1% trifluoroacetic acid. The sample was vortexed for 1 min and then centrifuged at 4° C. before LC-MS injection of the supernatant. Analyses were performed on a Kinetex RP-C18 column (2.6 μm, 100 Å, 50×4.6 mm) using a linear gradient (solvent B in solvent A, solvent A: water/0.05% TFA; solvent B: acetonitrile; flow rate of 2 mL·min^−1: detection at 358 nm). The percentage of remaining test compound relative to t0 was measured by monitoring the peak area of the chromatogram.

[10] = tested on: water-deprived or euhydrated mice; details: i.c.v., Iturrioz 2010; cited from earlier work
rat apelin receptor-EGFP [11] = target: T1, rat apelin receptor-EGFP; experiment: Apelin receptor-EGFP internalization, confocal microscopy; type: cell-based; details: for EC50: Table 2, read-out: Internalization EC50
Procedure: The internalization assay was performed as described previously with CHO cells stably expressing the rat apelin receptor-EGFP (43). […] Cells were then mounted in Aquapolymount (Polysciences, Warrington, Pa., USA) for confocal microscopic analysis (Sec (42) for details).

rat apelin receptor-EGFP [12] = target: T1, rat apelin receptor-EGFP; experiment: [125I]pE13F radioligand binding on CHO membrane preparations
Procedure: Crude membrane preparation from CHO stably expressing the wild-type rat apelin receptor-EGFP, were prepared as previously described (39). […] The reaction was stopped by adding ice-cold binding buffer and filtered through glass microfiber filters (Whatman GF/C filters). Radioactivity was counted in Wizard 1470 Wallac gamma counter (Perkin Elmer, Turku, Finland).

AT1 receptor = experiment: Selectivity towards the AT1 receptor; type: binding
[13] = 10^−6 M forskolin, read-out: IC50 inhibition of forskolin-induced cAMP production
[14] = Table 1, read-out: cAMP production IC50
[15] = competition with [125I]pE13F, CHO membranes, read-out: Ki for the apelin receptor (affinity)

CSCC[C@H](NC(=O)[C@@H]1CCCN1C(=O)CNC(=O)[C@H](CCCCN)NC(=O)[C@H](Cc1c[nH]cn1)NC(=O)[C@H](CO)NC(=O)[C@H](CC(C)C)NC(=O)[C@H](CCCNC(=N)N)NC(=O)[C@@H]1CCCN1C(=O)[C@H](CCCNC(=N)N)NC(=O)[C@H](CCC(N)=O)NC(=O)[C@H](CCCNC(=N)N)NC(=O)[C@H](CCCNC(=N)N)NC(=O)[C@H](Cc1ccccc1)NC(=O)[C@@H](N)CCCCN)C(=O)N1CCC[C@H]1C(=O)N[C@@H](Cc1ccccc1)C(=O)O [K17F, reference compound]
half-life [1]: 0.667 min
plasma AVP levels ([2]; water-deprived mice 24 h, 1 μg i.c.v., saline 425±46 pg/ml): 190 ± 27 pg/mL
maximal decrease in AVP release ([2]; 1 μg i.c.v.): −94%
EC50 (rat apelin receptor-EGFP [3]): 4.08 ± 1.17 nM
vasorelaxing effect at maximal concentration ([4]; 100 μM): 93±3%
maximal relaxant effect [4]: 87±8%
potency (pD2) of relaxation [4]: 8.30±0.44
IC50 (rat apelin receptor-EGFP [5]; [13]): 0.3 ± 0.2 nM
IC50 (rat apelin receptor-EGFP [5]; [14]): 0.3 ± 0.1 nM
IC50 (rat apelin receptor-EGFP [5]; Table 3, read-out: IC50 cAMP inhibition): 0.09 ± 0.01 nM
vasorelaxant effect in the presence of L-NAME [6]: blocked
chronotropic effect [7]: No chronotropic effect
effect on cardiac contractility (developed pressure) [7]: dose-dependently increased developed pressure
(maximal) decrease in mean arterial blood pressure ([8]; 15 nmol/rat i.v.): 7.8 mmHg and 5.4±1 mmHg
time of maximal hypotensive response after injection ([8]; 15 nmol/rat i.v.): 1.2 min
AUC of BP response [8]: −13712±5271 mmHg·s
decrease in MABP ([8]; 100 nmol/rat i.v.): 30.5 mmHg
plateau value after maximal decrease ([8]; 100 nmol/rat i.v.): −12 mmHg
time of return to plateau value ([8]; 100 nmol/rat i.v.): around 22 min
Maximal decrease in BP (mmHg) ([8]; 15 nmol i.v.): −7.8 mmHg
Time For maximal BP decrease ([8]; 15 nmol i.v.): 1.2 min
Time to return to a plateau value ([8]; 15 nmol i.v.): 4.2 min
plateau value reached (in brackets) ([8]; 15 nmol i.v.): baseline
ED50 decrease of MABP [8]: 30 nmol
half-life at 5 μM [9]: 4.6 min
ED50 decrease in plasma AVP [10]: 56 pmol
EC50 (rat apelin receptor-EGFP [11]): 0.26 ± 0.09 nM
Ki (rat apelin receptor-EGFP [12]; Table 7, additional experiments vs Table 2, read-out: Binding affinity Ki): 0.06 ± 0.01 nM
Ki (rat apelin receptor-EGFP [12]; [125I]pE13F binding I (nM), Table 2): 0.26 ± 0.12 nM
Ki (rat apelin receptor-EGFP [12]; [15]): 0.3 ± 0.1 nM

CCCC[C@H](NC(=O)[C@@H]1CCCN1C(=O)[C@@H](C)NC(=O)[C@H](CCCCN)NC(=O)C(C)(C)NC(=O)[C@H](CO)NC(=O)[C@@H](CC(C)C)NC(=O)[C@H](CCCNC(=N)N)NC(=O)[C@@H]1CCCN1C(=O)[C@H](CCCNC(=N)N)NC(=O)[C@@H](CCC(N)=O)NC(=O)[C@H](CCCNC(=N)N)NC(=O)[C@@H](CCCNC(=N)N)NC(=O)[C@H](Cc1ccccc1)NC(=O)[C@H](CCCCN)NC(C)=O)C(=O)N1CCC[C@H]1C(=O)N[C@@H](Cc1ccc(Br)cc1)C(=O)O [P92, N-Acetyl-Lys-Phe-DArg-Arg-DGln-Arg-Pro-Arg-DLeu-Ser-Aib-Lys-DAla-Pro-Nle-Pro-(4Br)Phe-OH] (HELM PEPTIDE1{[ac].K.F.[dR].R.[dQ].R.P.R.[dL].S.[Aib].K.[dA].P.[Nle].P.[O=C(O)[C@H](Cc1ccc(Br)cc1)N[*:1]]}$$$$V2.0)
effect on plasma AVP levels in euhydrated mice ([2]; euhydrated mice, supramaximal dose 1 μg i.c.v.): no effect on plasma AVP levels
maximal decrease in AVP release ([2]; 0.1 μg i.c.v.): −85%
EC50 (rat apelin receptor-EGFP [3]): 3.42 ± 2.41 nM
selectivity towards the AT1 receptor with respect to the apelin receptor (factor) (AT1 receptor): 100
maximal relaxant effect [4]: 100±1%
potency (pD2) of relaxation [4]: 7.68±0.57
agonist behaviour on inhibition of cAMP production induced by forskolin (rat apelin receptor-EGFP [5]): full agonist
IC50 (rat apelin receptor-EGFP [5]; [13]): 0.2 ± 0.06 nM
IC50 (rat apelin receptor-EGFP [5]; [14]): 0.62 ± 0.77 nM
IC50 (rat apelin receptor-EGFP [5]; Table 2, read-out: cAMP production IC50): 0.56 ± 0.32 nM
arteriolar diameter after addition to Ang II-preconstricted arterioles ([6]; 500 nM, 1 nM Ang II, from 87.6±1.9% with Ang II, percentage of controls): 98.1±2.5%
vasorelaxant effect in the presence of L-NAME [6]: blocked
chronotropic effect [7]: No chronotropic effect
effect on cardiac contractility (developed pressure) [7]: increase cardiac contractility with an amplitude similar to K17F
duration of the hypotensive effect, fold higher than K17F ([8]; 15 nmol i.v.): 3 fold
maximal hypotensive response, fold higher than K17F ([8]; 15 nmol i.v.): 3 fold
return to baseline after injection ([8]; 15 nmol/rat i.v.): 10.8 min
AUC of BP response [8]: −34303±4003 mmHg·s
decrease in MABP ([8]; 100 nmol/rat i.v.): 55.4 mmHg
plateau value after maximal decrease ([8]; 100 nmol/rat i.v.): −20 mmHg
time of return to plateau value ([8]; 100 nmol/rat i.v.): around 35 min
plateau value after maximal decrease ([8]; 10 or 15 nmol i.v.): −25 mmHg
time of return to plateau value ([8]; 10 or 15 nmol i.v.): around 33 min
Maximal decrease in BP (mmHg) ([8]; 15 nmol i.v.): −20.8 mmHg
Time For maximal BP decrease ([8]; 15 nmol i.v.): 1.6 min
Time to return to a plateau value ([8]; 15 nmol i.v.): 10.8 min
plateau value reached (in brackets) ([8]; 15 nmol i.v.): −12 mmHg
ED50 decrease of MABP [8]: 29.5 nmol
half-life at 5 μM [9]: 24 min
agonist behaviour towards apelin receptor internalization (rat apelin receptor-EGFP [11]): full agonist
EC50 (rat apelin receptor-EGFP [11]): 0.38 ± 0.11 nM
IC50 (rat apelin receptor-EGFP [12]; Table 1): 0.21 ± 0.13 nM
Ki (rat apelin receptor-EGFP [12]; [15]): 0.21 nM and 0.2 nM and 0.09 nM

From patent US20210206817A1, “Metabolically Stable Apelin Analogs in the Treatment of Disease Mediated by the Apelin Receptor” (priority 2014, published 2021)
